The record followed here is ChEMBL document CHEMBL1201862, “PubChem BioAssay data set” (2004).

Among the test systems are 786-0; CAKI-1; CCRF-CEM; EKVX; HCC 2998; HCT-116; HL-60; HOP-62; HOP-92; HT-29; KM12; MOLT-4; NCI-H522; NCI/ADR-RES; OVCAR-3; OVCAR-8; SW-620; TK-10; U-251; UO-31.
What all share (test): growth of human tumour cells (NCI), 48 h

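1) Cells in 96-well plates. 2) Compound, 48 h, 5 concentrations. 3) Linear interpolation between surrounding doses. 4) Unreached endpoint = highest concentration. GI50 is the concentration that inhibits growth by half.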 The source made the active and inactive calls. No stated cut-off is given here; in the data, active = GI50 up to about 1.1 µM and inactive = higher. Where a SMILES comes first, the peptide text is derived from it. [ ]: non-standard residue; d: D form. The star is where a group is joined. Phe(4-NO2) = N[CH](Cc1ccc([N+](=O)[O-])cc1)C(=O)O; Boc = CC(C)(C)OC(=O)*; OtBu = CC(C)(C)O*

Regarding `CC(=O)NC(CCC(=O)OC(C)(C)C)C(=O)NC(CCC(=O)OC(C)(C)C)C(=O)NC(Cc1ccc([N+](=O)[O-])cc1)C(=O)NC(CCCCNC(=O)OC(C)(C)C)C(=O)NC(CCCCNC(=O)OC(C)(C)C)C(=O)NCC(=O)O` (stereo not given) (Ac-E(OtBu)E(OtBu)[Phe(4-NO2)]K(Boc)K(Boc)G-OH; configuration not given here), the GI50 with 786-0, in the test with CAKI-1, in the test with CCRF-CEM, in the test with EKVX, in the test with HCC 2998 and in the test on HCT-116 was > 100 µM (inactive) throughout. In addition, the GI50 with HL-60, with HOP-62, in the test on HOP-92, in the test on HT-29, in the test on KM12 and in the test on MOLT-4 was > 100 µM (inactive) throughout. For the same molecule, the GI50 in the test with NCI-H522, with NCI/ADR-RES, in the test with OVCAR-3, in the test with OVCAR-8, in the test with SW-620 and with TK-10 was > 100 µM (inactive) throughout. Further, the GI50 in the test with U-251 and with UO-31 was > 100 µM (inactive) throughout.

As to `CN(C)c1ccc(/C=C(\NC(=O)c2ccccc2)c2nc3ccccc3c(=O)o2)cc1`, the GI50 in the test with 786-0, with CAKI-1, in the test on CCRF-CEM, in the test with EKVX, in the test with HCC 2998 and with HCT-116 was > 100 µM (inactive) each time. Also, the GI50 in the test with HL-60 was > 100 µM (inactive); with HOP-62, 71.1 µM (inactive); with HOP-92 it was > 100 µM (inactive); with HT-29 it was > 100 µM (inactive); in the test on KM12, > 100 µM (inactive); with MOLT-4, > 100 µM (inactive). Moreover, the GI50 in the test on NCI-H522 was 46.7 µM (inactive); with NCI/ADR-RES, > 100 µM (inactive); in the test with OVCAR-3, > 100 µM (inactive); in the test with OVCAR-8, 43.4 µM (inactive); in the test on SW-620, > 100 µM (inactive); with TK-10, > 100 µM (inactive). In addition, the values for the GI50 with U-251 and with UO-31 were 82 µM (inactive) and > 100 µM (inactive), respectively.

For `COC(C)(C)OCCN1CCN(CCN2C3=C(C=C(C(C)=O)C3)Sc3ccccc32)CC1`, the GI50 is 19.1 µM (inactive) in the test with 786-0; 19.2 µM (inactive) in the test with CAKI-1; 15.2 µM (inactive) with CCRF-CEM; 42.1 µM (inactive) in the test on EKVX; 20.4 µM (inactive) in the test with HCC 2998; 18 µM (inactive) in the test on HCT-116. The GI50 in the test on HL-60 was 16.6 µM (inactive); in the test on HOP-62, 19.4 µM (inactive); in the test on HOP-92 it was 29.5 µM (inactive); in the test on HT-29 it was 18 µM (inactive); in the test on KM12, 16.7 µM (inactive); in the test with MOLT-4 it was 17.3 µM (inactive). Also, the GI50 with NCI-H522 was 17.5 µM (inactive); in the test on NCI/ADR-RES, 20.7 µM (inactive); with OVCAR-3, 22.2 µM (inactive); in the test on OVCAR-8 it was 20.9 µM (inactive); with SW-620 it was 17.5 µM (inactive); in the test with TK-10, 19.2 µM (inactive). Moreover, the GI50 is 18.5 µM (inactive) in the test with U-251 and 25.1 µM (inactive) with UO-31.

As for `COC1C(O)=C2C(=O)OC(C)(O)/C=C/C=C\C=C/C=C/C(c3ccccc3)NC(=O)/C=C/C=C/C=C/C=C/C2(C)C1O` (stereo not given), the GI50 was 0.00787 µM (active) with 786-0; 0.0175 µM (active) in the test on CAKI-1; 0.383 µM (active) in the test on CCRF-CEM; 0.0118 µM (active) in the test with EKVX; 0.0122 µM (active) with HCC 2998; 0.00403 µM (active) in the test with HCT-116. The GI50 is 0.00348 µM (active) with HL-60; 0.0121 µM (active) in the test with HOP-62; 0.00146 µM (active) in the test with HOP-92; < 0.001 µM (active) in the test with HT-29; 0.00679 µM (active) with KM12; 0.0102 µM (active) with MOLT-4. The GI50 was < 0.001 µM (active) with NCI-H522; 0.00861 µM (active) in the test on NCI/ADR-RES; 0.0445 µM (active) in the test on OVCAR-3; 0.0034 µM (active) in the test on OVCAR-8; 0.00139 µM (active) with SW-620; 0.00871 µM (active) in the test with TK-10. The GI50 in the test with U-251 was 0.00522 µM (active); with UO-31 it was 0.00984 µM (active).

For the molecule `COc1ccc2cc(CNCCOCCOCCNCc3ccc4cc(OC)ccc4c3)ccc2c1`, the GI50 is 0.953 µM (active) with 786-0; 1.61 µM (inactive) in the test with CAKI-1; 0.341 µM (active) with CCRF-CEM; 1.57 µM (inactive) in the test on EKVX; 0.104 µM (active) with HCC 2998; 1.23 µM (inactive) in the test on HCT-116. Further, the GI50 with HL-60 is 0.216 µM (active); in the test with HOP-62, 1.69 µM (inactive); with HOP-92, 0.593 µM (active); with HT-29, 0.192 µM (active); in the test with KM12 it was 0.881 µM (active); in the test with MOLT-4, 0.402 µM (active). For the same molecule, the GI50 with NCI-H522 is 1.54 µM (inactive); with NCI/ADR-RES, 1.48 µM (inactive); in the test with OVCAR-3, 1.73 µM (inactive); in the test with OVCAR-8, 1.49 µM (inactive); with SW-620 it was 0.348 µM (active); with TK-10 it was 1.54 µM (inactive). Moreover, the results for the GI50 in the test with U-251 and in the test on UO-31 were 1.31 µM (inactive) and 1.32 µM (inactive), respectively.

Take `O=C(O)C(Cc1c[nH]c2ccccc12)C(=O)NO` (stereo not given): the GI50 in the test with 786-0 was > 100 µM (inactive); in the test with CAKI-1 it was > 100 µM (inactive); with CCRF-CEM, 39.8 µM (inactive); in the test with EKVX, 14.2 µM (inactive); with HCC 2998 it was > 100 µM (inactive); in the test with HCT-116, > 100 µM (inactive). Moreover, the GI50 with HL-60 was 53.7 µM (inactive); with HOP-62, > 100 µM (inactive); in the test with HOP-92, > 100 µM (inactive); in the test on HT-29 it was > 100 µM (inactive); in the test with KM12, > 100 µM (inactive); in the test with MOLT-4 it was > 100 µM (inactive). The GI50 with NCI-H522 is > 100 µM (inactive); with NCI/ADR-RES, > 100 µM (inactive); in the test on OVCAR-3 it was 96.8 µM (inactive); in the test on OVCAR-8 it was > 100 µM (inactive); in the test with SW-620 it was 95.5 µM (inactive); with TK-10, > 100 µM (inactive). In addition, the GI50 was 49.8 µM (inactive) with U-251 and > 100 µM (inactive) in the test with UO-31.

Turning to `Fc1cc(C2=Nn3c(COc4ccccc4Cl)nnc3S/C2=C\c2ccc(Cl)cc2)c(Cl)cc1Cl`, the GI50 in the test with 786-0 was 4.23 µM (inactive); in the test on CAKI-1, 8.02 µM (inactive); in the test on CCRF-CEM, 9.04 µM (inactive); in the test on EKVX, 10.1 µM (inactive); in the test with HCC 2998 it was 3.6 µM (inactive); with HCT-116 it was 2.74 µM (inactive). The GI50 was 4.49 µM (inactive) in the test with HL-60; 15.8 µM (inactive) with HOP-62; 1.36 µM (inactive) in the test on HOP-92; 3.18 µM (inactive) with HT-29; 3.21 µM (inactive) with KM12; 5.97 µM (inactive) in the test on MOLT-4. Besides, the GI50 is 5.5 µM (inactive) in the test on NCI-H522; 4.24 µM (inactive) in the test on NCI/ADR-RES; 17.1 µM (inactive) in the test with OVCAR-3; 6.03 µM (inactive) in the test with OVCAR-8; 3.54 µM (inactive) with SW-620; 11.6 µM (inactive) in the test on TK-10. For the same molecule, the GI50 was 3.2 µM (inactive) in the test on U-251 and 6.4 µM (inactive) in the test with UO-31.
